Details: not given

Compound	boiling point	log10 vapour pressure (mmHg)	melting point	log10 Henry constant (atm·m³/mol)	ready biodegradability	log10 Koc (L/kg)	log10 Koa
O=C1OC(=O)C(F)(F)C1(F)F	54.5 °C	–	–	–	–	–	–
CCCCOCC	92.3 °C	1.71	-124 °C	–	–	–	–
CCC=C(C)C=O	136 °C	–	–	–	–	–	–
CC(C=NO)=NO	–	–	157 °C	–	–	–	–
ICCI	200 °C	–	83 °C	–	–	–	–
NC(Cc1n[nH]c2ccccc12)C(=O)O (stereo not drawn)	–	–	240 °C	–	–	–	–
Clc1nc(Cl)c(Cl)c(Cl)n1	–	–	69 °C	–	–	–	–
CN(C)CCc1c[nH]c2cccc(OP(=O)(O)O)c12	–	–	224 °C	–	–	–	–
C=CCC(C(C)=O)C(=O)OCC (stereo not drawn)	208 °C	–	–	–	–	–	–
CN1CCCC1=O	202 °C	-0.462	-24 °C	-8.49	readily biodegradable	–	–
C=CCN(CC=C)C(=O)C(Cl)Cl	–	-2.22	5.5 °C	–	–	1.6	–
Cc1c([C@H](C)[C@@H]2NC[C@@H](C)C[C@H]2O)ccc2c1C[C@H]1[C@H]2CC=C2C[C@@H](O)CC[C@@]21C	–	–	206 °C	–	–	–	–
CCCCc1ccc(N)cc1	261 °C	–	–	–	–	–	–
Clc1cc2oc3c(Cl)c(Cl)c(Cl)c(Cl)c3c2c(Cl)c1Cl	–	–	–	–	–	–	11.4
CC(N)Cc1ccccc1 (stereo not drawn)	–	-0.62	–	–	–	–	–
CC(=O)NBr	–	–	104 °C	–	–	–	–
O=C1OC2(c3ccccc31)c1cc(Br)c(O)c(Br)c1Oc1c2cc(Br)c(O)c1Br	–	–	295 °C	–	–	–	–
CCc1cc(CC)cc(CC)c1	216 °C	–	-66.5 °C	–	–	–	–
O=C(Nc1ccc(Br)cc1)c1cc(Br)ccc1O	–	–	242 °C	–	–	–	–
C#CCOc1cc(-n2nc3n(c2=O)CCCC3)c(Cl)cc1Cl	–	-11.1	168 °C	–	–	–	–
CCc1nccnc1CC	181 °C	–	–	–	–	–	–
OCc1ccc(Cl)cc1Cl	–	–	59.5 °C	–	readily biodegradable	–	–
CCC1OCC(COc2ccc(Oc3ccccc3)cc2)O1 (stereo not drawn)	–	-6.08	–	–	–	–	–

Compound	boiling point	log10 vapour pressure (mmHg)	melting point	log10 Henry constant (atm·m³/mol)	ready biodegradability	log10 Koc (L/kg)	log10 Koa
CC[N+](=O)[O-]	114 °C	1.32	-89.5 °C	-4.32	–	–	2.88
O=[N+]([O-])CBr	149 °C	0.491	–	–	–	–	–
O=C(O)c1cc(F)c(F)c(F)c1	–	–	98 °C	–	–	–	–
Cc1ccccc1N	200 °C	-0.585	-16.3 °C	-5.7	readily biodegradable	–	–
CN(CCCC(=O)c1cccnc1)N=O	–	–	64 °C	–	–	–	–
Cc1ccc(N(CC2=NCCN2)c2cccc(O)c2)cc1	–	–	174 °C	–	–	–	–
O=C(O)CCCCCCCCCCCCC1C=CCC1 (stereo not drawn)	–	–	68.5 °C	–	–	–	–
COc1cc([N+](=O)[O-])ccc1N	–	–	141 °C	–	not readily biodegradable	–	–
O=C(O)CCCCC(=O)O	338 °C	-6.5	153 °C	–	readily biodegradable	–	–
O=C(c1ccccc1)c1cccs1	300 °C	–	56.5 °C	–	–	–	–
O=C(O)c1ccccc1SSc1ccccc1C(=O)O	–	–	288 °C	–	–	–	–
CN(C)C1CCCCC1	160 °C	–	–	-4.63	–	–	–
Cc1cc(Cl)ccc1Cl	200 °C	–	5 °C	–	–	–	–
COc1ccc(C(C)=O)cc1OC	287 °C	–	51 °C	–	–	–	–
Brc1ccc(Br)c(Br)c1	275 °C	–	44.5 °C	–	–	–	–
Nc1c(Cl)cccc1C(=O)O	–	–	190 °C	–	–	–	–
CCC(=O)c1ccco1	–	–	28 °C	–	–	–	–
C=Cc1ccc(CCl)cc1	–	–	–	–	not readily biodegradable	–	–
C#CCCC#C	86 °C	–	-6 °C	–	–	–	–
CC(C)C(O)CO (stereo not drawn)	206 °C	–	–	–	–	–	–
CCOC(CC)(OCC)OCC	171 °C	–	–	–	–	–	–
OCc1cc(Br)ccc1O	–	–	113 °C	–	–	–	–
Cc1csc(C)c1C	162 °C	–	-26.2 °C	–	–	–	–

Compound	boiling point	log10 vapour pressure (mmHg)	melting point	log10 Henry constant (atm·m³/mol)	ready biodegradability	log10 Koc (L/kg)	log10 Koa
COC(=O)C(C)Oc1ccc(Oc2ncc(C(F)(F)F)cc2Cl)cc1 (stereo not drawn)	–	-5.22	56 °C	–	–	1.88	–
CCCCC=CC(=O)O	226 °C	–	-19 °C	–	–	–	–
CCCCCCCC(=O)O	239 °C	-2.43	16.3 °C	–	readily biodegradable	–	–
CCCCCCCCCCc1ccc(O)c(/C=N/O)c1	–	–	–	–	readily biodegradable	–	–
CC(=O)Nc1ccc(Cl)c(Cl)c1	–	–	–	–	–	2.34	–
CCN(CC)Cc1cccnc1	–	-2.37	–	–	–	–	–
NC(=O)OCC(Cl)(Cl)Cl	–	–	64 °C	–	–	–	–
CCCCCCCF	118 °C	1.26	-73 °C	–	–	–	–
CCc1ccc(C(C)C)cc1	197 °C	–	–	–	–	–	–
CCCCCCC(=O)CCCCC	–	–	10 °C	–	–	–	–
CCS(=O)(=O)CCO	–	–	46 °C	–	–	–	–
CC(C)(C)c1ccc(C(C)(C)C)cc1	238 °C	–	79.5 °C	–	–	–	–
CSCc1ccccc1	210 °C	–	-30 °C	–	–	–	–
C1CCC2=NCCCN2CC1	–	–	–	–	not readily biodegradable	–	–
C=CC(Cl)(Cl)Cl	114 °C	–	-30 °C	–	–	–	–
FC(F)(F)c1ccc(Cl)c(Cl)c1	174 °C	0.372	-12.5 °C	–	–	–	–
CCCCOC(=O)N(C)SN(C)C(=O)Oc1cccc2c1OC(C)(C)C2	–	-7.53	–	–	–	–	–
BrC1Cc2ccccc2C1Br (stereo not drawn)	–	–	32 °C	–	–	–	–
CC(C)(C)c1ccc(O)c(C(C)(C)C)c1	264 °C	-2.32	56.5 °C	–	not readily biodegradable	–	–
N#CC(Cl)(Cl)Cl	85.7 °C	1.87	-42 °C	–	–	–	–
C=C(C)C(=O)OCC(CC)(COC(=O)C(=C)C)COC(=O)C(=C)C	–	–	–	–	readily biodegradable	–	–
Clc1ccc(-c2c(Cl)cc(Cl)c(Cl)c2Cl)c(Cl)c1Cl	–	-5.85	–	–	–	–	10.2
CC(C)=CC(=O)O	197 °C	–	69.5 °C	–	–	–	–

Compound	boiling point	log10 vapour pressure (mmHg)	melting point	log10 Henry constant (atm·m³/mol)	ready biodegradability	log10 Koc (L/kg)	log10 Koa
CC(C)OC(=O)COc1ccc(Cl)cc1Cl	–	-3.63	5 °C	–	–	–	–
N#CC1(O)CCCCC1	–	–	35 °C	–	–	–	–
Cc1ccc(-c2ccc(C)cc2C)c(C)c1	287 °C	–	41 °C	–	–	–	–
CC[C@H](CC[C@@H](C)[C@H]1CC[C@H]2[C@@H]3CC=C4C[C@@H](O)CC[C@]4(C)[C@H]3CC[C@]12C)C(C)C	–	–	144 °C	–	–	–	–
O=C1c2ccccc2-c2ccc3c4ccc5c6c(ccc(c7ccc1c2c73)c64)C(=O)c1ccccc1-5	–	–	492 °C	–	–	–	–
COc1ccc(Br)cc1	215 °C	-0.692	13.5 °C	–	–	–	–
CN(C)c1cccc([N+](=O)[O-])c1	282 °C	–	60.5 °C	–	–	–	–
c1ccc(N2CCN(c3ccccc3)CC2)cc1	–	–	165 °C	–	–	–	–
COC(=O)C1(S(=O)(=O)c2ccccc2)CCCC1	–	–	56.5 °C	–	–	–	–
Nc1cccc2cc3ccccc3cc12	–	–	116 °C	–	–	–	–
CCCCCCCCCCOC(=O)CCCCC(=O)OCCCCCCCC	–	–	-50 °C	–	–	–	–
ClCCI	140 °C	–	-15.6 °C	–	–	–	–
COc1ccccc1C(=O)c1ccccc1	–	–	41 °C	–	–	–	–
Cc1cc(N(C)C)nc(Cl)n1	–	–	87 °C	–	–	–	–
CCCCOC(=O)CCC	166 °C	0.258	-91.5 °C	–	–	–	–
CC1=NCCO1	111 °C	–	–	–	–	–	–
CCCCC(C)(O)CC (stereo not drawn)	163 °C	–	-83 °C	–	–	–	–
C[Si](C)(F)c1ccccc1	–	0.463	–	–	–	–	–
COC(=O)C(C)C	92.5 °C	1.69	-84.7 °C	–	–	–	–
CN(C)C(=O)Oc1ccc[n+](C)c1.[Br-]	–	–	153 °C	–	–	–	–
CCC(C)(Br)CC	130 °C	–	–	–	–	–	–
CC1=CC[C@@H](C(C)C)CC1	174 °C	–	–	–	–	–	–

Same assay, conditions: fish

Compound	log10 BCF	log10 biotransformation half-life (days)
Brc1ccc(Br)c(Br)c1	3.63	–
COC(=O)C(C)Oc1ccc(Oc2ncc(C(F)(F)F)cc2Cl)cc1 (stereo not drawn)	1.23	-1.08
FC(F)(F)c1ccc(Cl)c(Cl)c1	3.18	1.52
CC(C)(C)c1ccc(O)c(C(C)(C)C)c1	2.4	-0.37
Clc1ccc(-c2c(Cl)cc(Cl)c(Cl)c2Cl)c(Cl)c1Cl	–	2.52
Brc1cc(Oc2c(Br)c(Br)c(Br)c(Br)c2Br)c(Br)c(Br)c1Br	5.44	–

Reference: the OPERA property sets (Mansouri et al. 2018)
